Data published in US5705630A, “2'-methylidenepyrimidine nucleoside compounds” (Yoshitomi Pharmaceutical Industries, Ltd., priority 1988, dated 1998).

Assay: solubility (general statement)
Format: physicochemical
Conditions: with respect to pharmaceutical production

solubility: inferior in solubility
Structure (SMILES): C=C1[C@H](n2ccc(N)nc2=O)O[C@H](CO)[C@H]1O [2'-deoxy-2'-methylidenecytidine]
